Key:
[1] = biological target: Cyclin-dependent kinase 4 (Homo sapiens) (UniProt P11802); experiment: Inhibition of human recombinant CDK4 at 40 nM related to control ULK1
[2] = biological target: Mitogen-activated protein kinase kinase kinase kinase 1 (Homo sapiens) (UniProt Q92918); experiment: Inhibition of human recombinant HPK1 at 40 nM related to control ULK1
[3] = biological target: Serine/threonine-protein kinase 26 (Homo sapiens) (UniProt Q9P289); experiment: Inhibition of human recombinant MST4 at 15 nM related to control ULK1
Chain of Serine/threonine-protein kinase 26 (Homo sapiens) (Q9P289 2-416 limits assumed): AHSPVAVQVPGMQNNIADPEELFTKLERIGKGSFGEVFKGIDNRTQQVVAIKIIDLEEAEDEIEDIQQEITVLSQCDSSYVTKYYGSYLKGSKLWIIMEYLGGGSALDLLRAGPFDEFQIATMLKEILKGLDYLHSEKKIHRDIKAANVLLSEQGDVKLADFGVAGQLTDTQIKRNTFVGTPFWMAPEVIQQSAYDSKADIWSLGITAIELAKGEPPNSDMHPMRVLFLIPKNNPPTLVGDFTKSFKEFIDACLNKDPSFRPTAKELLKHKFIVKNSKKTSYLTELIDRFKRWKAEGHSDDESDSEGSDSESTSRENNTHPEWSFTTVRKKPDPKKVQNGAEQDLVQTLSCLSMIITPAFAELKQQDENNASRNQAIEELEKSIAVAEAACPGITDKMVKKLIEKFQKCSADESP

[4] = biological target: T1, Discoidin domain-containing receptor 2 (Homo sapiens) (UniProt Q16832); experiment: Inhibition of human recombinant DDR2 at 500 nM in presence of ATP by radiometric assay relative to control
T1 sequence (whole entry): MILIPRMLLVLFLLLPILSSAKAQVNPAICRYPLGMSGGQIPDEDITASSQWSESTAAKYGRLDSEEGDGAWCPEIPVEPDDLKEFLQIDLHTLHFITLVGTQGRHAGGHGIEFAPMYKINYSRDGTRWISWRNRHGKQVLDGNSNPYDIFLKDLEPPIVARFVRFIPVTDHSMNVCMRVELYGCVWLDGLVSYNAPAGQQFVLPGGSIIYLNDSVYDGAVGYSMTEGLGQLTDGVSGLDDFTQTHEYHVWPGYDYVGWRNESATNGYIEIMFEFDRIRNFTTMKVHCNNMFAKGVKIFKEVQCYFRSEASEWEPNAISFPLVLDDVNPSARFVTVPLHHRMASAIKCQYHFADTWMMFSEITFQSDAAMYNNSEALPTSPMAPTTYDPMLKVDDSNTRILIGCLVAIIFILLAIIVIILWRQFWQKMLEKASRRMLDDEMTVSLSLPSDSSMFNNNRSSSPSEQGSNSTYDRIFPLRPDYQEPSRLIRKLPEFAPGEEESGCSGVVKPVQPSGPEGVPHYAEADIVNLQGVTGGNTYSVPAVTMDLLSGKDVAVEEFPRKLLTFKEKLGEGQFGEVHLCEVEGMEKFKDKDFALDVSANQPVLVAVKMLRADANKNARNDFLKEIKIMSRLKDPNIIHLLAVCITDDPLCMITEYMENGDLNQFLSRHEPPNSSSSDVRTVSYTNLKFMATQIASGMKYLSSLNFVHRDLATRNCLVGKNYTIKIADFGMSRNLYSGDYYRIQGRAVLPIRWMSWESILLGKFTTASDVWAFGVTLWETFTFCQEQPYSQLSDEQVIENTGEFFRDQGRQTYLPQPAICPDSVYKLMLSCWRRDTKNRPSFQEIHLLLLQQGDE

[5] = biological target: Serine/threonine-protein kinase SIK3 (Homo sapiens) (UniProt Q9Y2K2); experiment: Inhibition of human recombinant QSK at 500 nM in presence of ATP by radiometric assay relative to control
Chain of Serine/threonine-protein kinase SIK3 (Homo sapiens) (Q9Y2K2 whole entry, looked up): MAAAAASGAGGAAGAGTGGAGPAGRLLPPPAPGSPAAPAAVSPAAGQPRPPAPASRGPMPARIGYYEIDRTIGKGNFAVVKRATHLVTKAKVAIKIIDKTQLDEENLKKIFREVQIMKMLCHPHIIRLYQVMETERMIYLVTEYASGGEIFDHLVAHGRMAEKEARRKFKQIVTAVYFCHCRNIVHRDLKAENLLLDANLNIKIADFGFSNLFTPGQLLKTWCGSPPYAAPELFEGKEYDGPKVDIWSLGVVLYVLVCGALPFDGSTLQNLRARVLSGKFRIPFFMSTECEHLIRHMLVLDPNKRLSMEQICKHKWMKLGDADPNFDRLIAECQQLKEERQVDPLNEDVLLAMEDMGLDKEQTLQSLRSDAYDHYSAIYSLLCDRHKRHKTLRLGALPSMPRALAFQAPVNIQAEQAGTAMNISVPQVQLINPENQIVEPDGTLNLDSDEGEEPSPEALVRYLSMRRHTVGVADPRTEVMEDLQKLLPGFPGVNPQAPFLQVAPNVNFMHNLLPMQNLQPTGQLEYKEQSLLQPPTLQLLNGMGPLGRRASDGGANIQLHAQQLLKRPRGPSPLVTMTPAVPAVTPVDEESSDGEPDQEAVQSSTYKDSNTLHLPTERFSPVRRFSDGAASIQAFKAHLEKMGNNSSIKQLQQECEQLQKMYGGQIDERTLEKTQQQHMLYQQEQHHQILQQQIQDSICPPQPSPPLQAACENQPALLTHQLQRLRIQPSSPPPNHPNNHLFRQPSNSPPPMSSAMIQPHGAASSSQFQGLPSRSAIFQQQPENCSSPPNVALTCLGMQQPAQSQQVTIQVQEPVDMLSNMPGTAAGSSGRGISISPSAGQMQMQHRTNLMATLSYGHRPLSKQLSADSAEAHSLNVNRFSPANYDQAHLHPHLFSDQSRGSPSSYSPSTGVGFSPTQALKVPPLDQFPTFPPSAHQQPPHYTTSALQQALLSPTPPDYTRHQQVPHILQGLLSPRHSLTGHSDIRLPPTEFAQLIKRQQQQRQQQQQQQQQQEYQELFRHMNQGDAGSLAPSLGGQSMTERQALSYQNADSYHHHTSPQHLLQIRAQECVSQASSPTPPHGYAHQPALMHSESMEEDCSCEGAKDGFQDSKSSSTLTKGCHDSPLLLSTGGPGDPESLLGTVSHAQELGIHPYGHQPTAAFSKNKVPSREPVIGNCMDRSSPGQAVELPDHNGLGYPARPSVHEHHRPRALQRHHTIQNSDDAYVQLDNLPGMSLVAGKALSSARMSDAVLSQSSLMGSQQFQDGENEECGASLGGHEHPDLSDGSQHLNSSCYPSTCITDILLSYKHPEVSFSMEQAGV

[6] = biological target: T2, Testis-specific serine/threonine-protein kinase 3 (Homo sapiens) (UniProt Q96PN8); experiment: Inhibition of human recombinant TSSK3 at 500 nM in presence of ATP by radiometric assay relative to control
T2 sequence (whole entry): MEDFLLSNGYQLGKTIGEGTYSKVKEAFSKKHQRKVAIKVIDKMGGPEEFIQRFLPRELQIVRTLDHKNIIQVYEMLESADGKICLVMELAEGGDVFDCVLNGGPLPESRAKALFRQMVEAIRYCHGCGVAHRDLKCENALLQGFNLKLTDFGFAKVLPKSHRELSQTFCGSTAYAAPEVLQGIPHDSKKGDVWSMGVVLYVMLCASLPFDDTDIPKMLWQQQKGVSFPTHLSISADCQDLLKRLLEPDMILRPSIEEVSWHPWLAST

[7] = biological target: T3, cGMP-dependent protein kinase 1 (Homo sapiens) (UniProt Q13976); experiment: Inhibition of human recombinant PKG1 at 500 nM related to control ULK1
T3 sequence (whole entry): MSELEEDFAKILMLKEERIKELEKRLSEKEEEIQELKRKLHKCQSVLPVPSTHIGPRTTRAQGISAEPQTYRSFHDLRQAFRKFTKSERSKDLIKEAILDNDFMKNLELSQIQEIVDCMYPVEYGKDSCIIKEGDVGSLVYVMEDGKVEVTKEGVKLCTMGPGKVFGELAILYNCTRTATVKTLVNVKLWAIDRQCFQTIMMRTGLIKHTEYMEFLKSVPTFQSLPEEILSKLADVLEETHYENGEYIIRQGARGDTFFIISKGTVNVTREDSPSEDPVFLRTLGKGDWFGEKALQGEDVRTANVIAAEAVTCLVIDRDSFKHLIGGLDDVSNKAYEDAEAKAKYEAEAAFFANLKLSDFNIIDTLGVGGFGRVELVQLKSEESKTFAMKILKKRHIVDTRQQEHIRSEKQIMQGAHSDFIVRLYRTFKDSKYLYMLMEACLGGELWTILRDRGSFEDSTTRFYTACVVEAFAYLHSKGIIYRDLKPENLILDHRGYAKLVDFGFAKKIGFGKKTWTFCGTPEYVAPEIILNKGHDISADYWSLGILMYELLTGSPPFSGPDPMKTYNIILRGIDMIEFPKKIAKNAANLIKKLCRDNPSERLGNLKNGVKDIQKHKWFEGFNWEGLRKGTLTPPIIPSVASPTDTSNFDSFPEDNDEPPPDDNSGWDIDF

[8] = biological target: T4, Serine/threonine-protein kinase Sgk3 (Homo sapiens) (UniProt Q96BR1); experiment: Inhibition of human recombinant SGK3 at 500 nM related to control ULK1
T4 sequence (whole entry): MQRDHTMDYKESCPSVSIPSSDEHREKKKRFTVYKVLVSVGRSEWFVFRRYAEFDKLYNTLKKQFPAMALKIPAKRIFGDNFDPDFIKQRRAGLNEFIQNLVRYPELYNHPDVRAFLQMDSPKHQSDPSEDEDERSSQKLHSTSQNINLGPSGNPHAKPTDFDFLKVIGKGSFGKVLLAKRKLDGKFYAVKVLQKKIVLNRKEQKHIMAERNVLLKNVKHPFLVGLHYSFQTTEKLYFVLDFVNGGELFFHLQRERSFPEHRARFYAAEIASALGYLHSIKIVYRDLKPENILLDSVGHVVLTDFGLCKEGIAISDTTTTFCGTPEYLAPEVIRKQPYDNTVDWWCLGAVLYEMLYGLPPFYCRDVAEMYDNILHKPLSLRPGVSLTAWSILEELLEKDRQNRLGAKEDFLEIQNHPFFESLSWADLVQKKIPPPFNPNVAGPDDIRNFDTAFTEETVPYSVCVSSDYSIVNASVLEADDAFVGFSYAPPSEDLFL

Chain of Cyclin-dependent kinase 4 (Homo sapiens) (P11802 whole entry): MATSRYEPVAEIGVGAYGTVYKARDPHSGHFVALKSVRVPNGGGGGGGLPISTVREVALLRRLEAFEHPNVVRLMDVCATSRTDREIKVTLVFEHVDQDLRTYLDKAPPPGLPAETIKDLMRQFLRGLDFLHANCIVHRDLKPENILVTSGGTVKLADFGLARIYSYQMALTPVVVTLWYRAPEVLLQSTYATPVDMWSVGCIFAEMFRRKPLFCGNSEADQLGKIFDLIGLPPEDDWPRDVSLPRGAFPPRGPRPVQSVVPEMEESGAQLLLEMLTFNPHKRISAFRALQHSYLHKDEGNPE
Chain of Mitogen-activated protein kinase kinase kinase kinase 1 (Homo sapiens) (Q92918 whole entry, looked up): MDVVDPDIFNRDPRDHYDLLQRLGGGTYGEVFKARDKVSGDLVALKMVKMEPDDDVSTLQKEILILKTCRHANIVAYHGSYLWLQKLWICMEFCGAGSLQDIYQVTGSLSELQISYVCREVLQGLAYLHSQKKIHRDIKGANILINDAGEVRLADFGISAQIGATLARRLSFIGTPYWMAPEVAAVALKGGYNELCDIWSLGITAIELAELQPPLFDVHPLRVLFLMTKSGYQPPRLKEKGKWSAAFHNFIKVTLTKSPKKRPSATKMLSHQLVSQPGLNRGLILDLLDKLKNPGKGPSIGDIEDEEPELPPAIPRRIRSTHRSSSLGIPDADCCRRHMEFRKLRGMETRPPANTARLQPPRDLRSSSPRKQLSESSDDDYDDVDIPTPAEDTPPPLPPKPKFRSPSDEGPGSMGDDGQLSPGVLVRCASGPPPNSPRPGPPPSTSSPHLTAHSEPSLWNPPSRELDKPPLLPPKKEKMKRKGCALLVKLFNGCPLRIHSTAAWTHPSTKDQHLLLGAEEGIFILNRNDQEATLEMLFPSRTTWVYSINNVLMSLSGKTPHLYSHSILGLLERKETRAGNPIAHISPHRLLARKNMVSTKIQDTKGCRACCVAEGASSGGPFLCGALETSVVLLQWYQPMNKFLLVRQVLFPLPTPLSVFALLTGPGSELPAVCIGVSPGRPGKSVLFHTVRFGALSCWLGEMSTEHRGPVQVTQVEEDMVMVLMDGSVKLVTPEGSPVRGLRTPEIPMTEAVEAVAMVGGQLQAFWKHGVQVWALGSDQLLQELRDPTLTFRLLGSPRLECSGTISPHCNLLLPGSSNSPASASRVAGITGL

O=C(N[C@@H](C1CC1)C(F)(F)F)c1cc(-c2cnn3cc(-c4ccc(F)cc4)cnc23)cs1
fold change (FC) [1]: 0 | fold change (FC) [2]: 0

CC(C)[C@H](NC(=O)c1cc(-c2cnn3cc(-c4ccc(OCCN5CCCCC5)cc4)cnc23)cs1)C(F)(F)F
fold change (FC) [3]: 0

CNC(=O)c1ccccc1Oc1nc(Nc2cc(OC)c(OC)c(OC)c2)ncc1Br
inhibition [4]: 0% | inhibition [5]: 8% | inhibition [6]: 0% | fold change (FC) [7]: 0.05 | fold change (FC) [8]: 0.01
